Results as given in patent publication US12343336B2, “Increasing cancer cells' sensitivity to tumor treating fields (TTFields) by inhibiting IL11 activity” (Novocure GmbH, priority 2019, dated 2025).

Columns and labels:
[1] = system: N1S1 liver carcinoma cells; assay: N1S1 tumor volume by MRI in rats treated with TTFields and/or sorafenib; format: in vivo, Sprague Dawley rats
Procedure: Tumor volume was determined by MRI. […] In this experiment, the volume of the tumor was measured using MRI on day 6 (one day before treatment start) and day 14 (one day after the end of treatment); and each data point in FIG. 1A represents the volume of the tumor on day 14 divided by the volume of the tumor on day 6. Thus, numbers greater than 1 represent growth in the tumor volume, and numbers smaller than 1 represent a tumor that has shrunk between day 6 and day 14. In this figure, “*” represents p<0.1, “**” represents p<0.01, and “****” represents p<0.0001. […] FIG. 1B represents the volume of the tumor.
(§1) Male SD rats, 8-weeks of age (Envigo Ltd, Israel), were anesthetized by I.P. injection of Ketamine (75 mg/kg) and Xylazine (10 mg/kg)(FIG. 2). After loss of postural reflexes, the fur was removed from the upper abdominal area using a trimmer. The left lobe of the liver was surgically exposed and 10 μl of cell suspension containing 50,000 N1-S1 hepatocellular carcinoma cells in equal volumes of serum free medium and Matrigel (CORNING, Bedford, MA) were injected directly into the left lobe using a syringe with a 31-gauge needle. The peritoneum and abdominal muscles incisions were closed using surgical sutures and the skin were close by clips. The rats were allowed to recover for 6 days.
(§2) On day 6 all animals underwent a first MRI scan and were randomly divided into the following treatment groups:
(§3) Group I—rats were treated with sham heating electrodes and vehicle injection.
(§4) Group II—rats were treated with 150 kHz TTFields and vehicle injection.
Group III—rats were treated with 10 mg/kg/day Sorafenib.
Group IV—rats were treated with 150 kHz TTFields and 10 mg/kg/day Sorafenib.
On day 7, electrodes (TTFields or sham heating) were placed on the animals. The animals were treated for 6 days with TTFields or sham heat. […] Tumor volume were determined based on MRI scans on days […] after tumor implantation. […] Tumor volume was measured by manual segmentation of the tumor using ITK-SNAP version 3.6.0-rc1 free software. […]

N1S1 tumors = assay: Fibrosis evaluation (score and Masson Trichrome morphometry) of treated N1S1 tumors; format: in vivo, SD rats
Procedure: as §1, §2, §3, §4
Group III—rats were treated with 10 mg/kg/day Sorafenib. […]
On day 7, electrodes (TTFields or sham heating) were placed on the animals. […] Tumor volume were determined based on MRI scans on days […] after tumor implantation. […] Tumor volume was measured by manual segmentation of the tumor using ITK-SNAP version 3.6.0-rc1 free software. […]
Tumors were harvested for histological evaluation of the grade of fibrosis using a semi-quantitative evaluation scale. […] Masson Trichrome stained sections were analyzed for fibrosis, using a scoring grade scale and digital morphometry.
H&E stained sections were examined by one pathologist and scored by a semi-quantitative scoring system for the presence of pathological changes (FIGS. 3 and 3A), as follows: • Grade 0: no signs of fibrosis • Grade 1: very mild signs of fibrosis • Grade 2: mild signs of fibrosis • Grade 3: moderate signs of fibrosis • Grade 4: High grade of fibrosis • Grade 5: Very high grade of fibrosis […]
The percent of the stained areas (FIG. 3: top-right) out of the whole tissue (FIG. 3: top-right+bottom-left) was calculated as shown in FIG. 4.

CNC(=O)c1cc(Oc2ccc(NC(=O)Nc3ccc(Cl)c(C(F)(F)F)c3)cc2)ccn1 [sorafenib]
tumor volume ([1]; combination of TTFields (2.86 V/cm) and sorafenib (10 mg/kg/day)): synergistic decrease
decrease in tumor volume ([1]; combination of TTFields and sorafenib, N1S1 tumors, FIG. 1): ≥ 10 fold
fold increase in tumor volume (day 14 / day 6) ([1]; combination of TTFields at 150 kHz and sorafenib 10 mg/kg/day IP, MRI): significantly reduced
fibrosis score (N1S1 tumors; TTFields in combination with sorafenib, relative to TTFields alone, evaluated by a pathologist): significantly reduced
reduction in fibrotic area compared to control group (N1S1 tumors; combined treatment of 150 kHz TTFields and sorafenib 10 mg/kg/day): 20.8%
decrease in fibrotic area relative to control (N1S1 tumors; sorafenib alone, 10 mg/kg/day, morphometry of fibrosis percent): 30.4%
